Molecular target: NS5B polymerase (Hepatitis C virus genotype 1b, UniProt P26663)
Assay: biochemical
Details: NS5B polymerase inhibition; 20 nM enzyme, 75 min at 28° C.
Description: Compounds were tested for HCV polymerase inhibition. Assays were performed in a 96-well streptavidin-coated FlashPlate using 20 nM enzyme, 0.5μ Ci of [α-^33P]GTP, 0.6 μM GTP, and 250 nM 5′biotinylated oligo (rG13)/poly rC in 20 mM Tris-HCl, pH 7.5, 5 mM MgCl2, 5 mM dithiothreitol, 0.1 g/L bovine serum albumin, and 100 U/mL RNAse inhibitor. The reaction was stopped by aspiration after 75 min at 28° C. and the plate was washed several times. After washing and drying the plate, incorporated radioactivity was counted using a Microbeta scintillation counter. IC50 values were calculated relative to the uninhibited control and inhibition data were fitted to a 4-parameter IC50 equation.

Sequence of NS5B polymerase (P26663 2420-3010): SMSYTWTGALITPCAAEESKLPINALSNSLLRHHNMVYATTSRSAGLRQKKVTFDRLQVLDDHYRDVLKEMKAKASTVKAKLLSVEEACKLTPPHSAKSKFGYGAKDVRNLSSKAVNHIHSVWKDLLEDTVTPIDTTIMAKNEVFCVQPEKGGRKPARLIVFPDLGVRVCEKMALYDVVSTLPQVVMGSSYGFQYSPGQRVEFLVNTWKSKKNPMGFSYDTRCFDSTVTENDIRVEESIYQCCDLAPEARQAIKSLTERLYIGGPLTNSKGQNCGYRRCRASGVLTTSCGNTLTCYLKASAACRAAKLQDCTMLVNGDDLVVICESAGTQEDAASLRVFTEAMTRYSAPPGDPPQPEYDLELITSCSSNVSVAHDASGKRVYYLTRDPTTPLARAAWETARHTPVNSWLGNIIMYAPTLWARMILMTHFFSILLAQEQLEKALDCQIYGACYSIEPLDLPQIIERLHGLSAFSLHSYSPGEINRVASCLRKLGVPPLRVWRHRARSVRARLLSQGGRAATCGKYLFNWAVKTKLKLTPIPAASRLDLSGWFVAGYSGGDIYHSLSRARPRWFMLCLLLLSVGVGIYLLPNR

Structure (SMILES)	IC50 [µM]
CS(=O)(=O)Nc1ccc2c(c1)S(=O)(=O)N=C(C1=C(O)C3CCCCCCC3N(Cc3ccc(F)cc3)C1=O)N2 (stereo not shown) [Example 3, N-{3-[1-(4-Fluoro-benzyl)-4-hydroxy-2-oxo-1,2,4a,5,6,7,8,9,10,10a-decahydro-cycloocta[b]pyridin-3-yl]-1,1-dioxo-1,4-dihydro-1λ^6-benzo[1,2,4]thiadiazin-7-yl]-methanesulfonamide]	0.1 to 1
CS(=O)(=O)Nc1ccc2c(c1)S(=O)(=O)N=C(C1=C(O)[C@@H]3CCC[C@@H]3N(Cc3ccc(F)c(Cl)c3)C1=O)N2 [Example 11, (4aR,7aS)—N-{3-[1-(3-Chloro-4-fluoro-benzyl)-4-hydroxy-2-oxo-2,4-a,5,6,7,7a-hexahydro-1H-[1]pyrindin-3-yl]-1,1-dioxo-1,4-dihydro-1λ^6-benzo[1,2,4]thiadiazin-7-yl}-methanesulfonamide]	< 0.02
CS(=O)(=O)Nc1ccc2c(c1)S(=O)(=O)N=C(C1=C(O)[C@@H]3CCC[C@@H]3N(Cc3ccc(F)cc3)C1=O)N2 [Example 12, (4aR,7aS)—N-{3-[1-(4-Fluoro-benzyl)-4-hydroxy-2-oxo-2,4-a,5,6,7,7a-hexahydro-1H-[1]pyrindin-3-yl]-1,1-dioxo-1,4-dihydro-1λ^6-benzo[1,2,4]thiadiazin-7-yl}-methanesulfonamide]	< 0.02
CS(=O)(=O)Nc1ccc2c(c1)S(=O)(=O)N=C(C1=C(O)[C@@H]3CCCC[C@@H]3N(Cc3ccc(F)cc3)C1=O)N2 [Example 13, (4aR,8aS)—N-{3-[1-(4-Fluoro-benzyl)-4-hydroxy-2-oxo-1,2,4a,5,6,7,8,8a-octahydro-quinolin-3-yl]-1,1-dioxo-1,4-dihydro-1λ^6-benzo[1,2,4]thiadiazin-7-yl}-methanesulfonamide]	0.02 to 0.1
CS(=O)(=O)Nc1ccc2c(c1)S(=O)(=O)N=C(C1=C(O)[C@@H]3CCC[C@@H]3N(Cc3ccc(C(F)(F)F)cc3)C1=O)N2 [Example 14, (4aR,7aS)—N-{3-[4-Hydroxy-2-oxo-1-(4-trifluoromethyl-benzyl)-2,4-a,5,6,7,7a-hexahydro-1H-[1]pyrindin-3-yl]-1,1-dioxo-1,4-dihydro-1λ^6 benzo[1,2,4]thiadiazin-7-yl}-methanesulfonamide]	0.1 to 1
CS(=O)(=O)Nc1ccc2c(c1)S(=O)(=O)N=C(C1=C(O)[C@@H]3CCC[C@@H]3N(Cc3cccc(C(F)(F)F)c3)C1=O)N2 [Example 15, (4aR,7aS)—N-{3-[4-Hydroxy-2-oxo-1-(3-trifluoromethyl-benzyl)-2,4-a,5,6,7,7a-hexahydro-1H-[1]pyrindin-3-yl]-1,1-dioxo-1,4-dihydro-1λ^6-benzo[1,2,4]thiadiazin-7-yl}-methanesulfonamide]	0.1 to 1
CS(=O)(=O)Nc1ccc2c(c1)S(=O)(=O)N=C(C1=C(O)C3CCC=CC3N(Cc3ccc(F)cc3)C1=O)N2 (stereo not shown) [Example 16, N-{3-[1-(4-Fluoro-benzyl)-4-hydroxy-2-oxo-1,2,4a,5,6,8a-hexahydro-quinolin-3-yl]-1,1-dioxo-1,4-dihydro-1λ^6-benzo[1,2,4]thiadiazin-7-yl}-methanesulfonamide]	< 0.02
CC(C)CCN1C(=O)C(C2=NS(=O)(=O)c3cc(NS(C)(=O)=O)ccc3N2)=C(O)C2CCCCC21 (stereo not shown) [Example 20, N-{3-[2-(3-Methylbutyl)-5-hydroxy-3-oxo-2-aza-bicyclo[4.4.0]dec-4-en-4-yl]-1,1-dioxo-1,4-dihydro-1λ^6-benzo[1,2,4]thiadiazin-7-yl}-methanesulfonamide]	0.02 to 0.1
CC(C)(C)CCN1C(=O)C(C2=NS(=O)(=O)c3cc(NS(C)(=O)=O)ccc3N2)=C(O)C2CCCCC21 (stereo not shown) [Example 21, N-{3-[2-(3,3-Dimethylbutyl)-5-hydroxy-3-oxo-2-aza-bicyclo[4.4.0]dec-4-en-4-yl]-1,1-dioxo-1,4-dihydro-1λ^6-benzo[1,2,4]thiadiazin-7-yl}-methanesulfonamide]	0.02 to 0.1
Cc1cc(CN2C(=O)C(C3=NS(=O)(=O)c4cc(NS(C)(=O)=O)ccc4N3)=C(O)[C@@H]3CCC[C@@H]32)ccc1F [Example 22, (4aR,7aS)—N-{3-[1-(4-fluoro-3-methyl-benzyl)-4-hydroxy-2-oxo-2,4-a,5,6,7,7a-hexahydro-1H-[1]pyrindin-3-yl]-1,1-dioxo-1,4-dihydro-1λ^6-benzo[1,2,4]thiadiazin-7-yl}-methanesulfonamide]	< 0.02
Cc1cccc(CN2C(=O)C(C3=NS(=O)(=O)c4cc(NS(C)(=O)=O)ccc4N3)=C(O)[C@@H]3CCC[C@@H]32)c1 [Example 23, (4aR,7aS)—N-{3-[4-Hydroxy-1-(3-methyl-benzyl)-2-oxo-2,4-a,5,6,7,7a-hexahydro-1H-[1]pyrindin-3-yl]-1,1-dioxo-1,4-dihydro-1λ^6-benzo[1,2,4]thiadiazin-7-yl}-methanesulfonamide]	< 0.02
CS(=O)(=O)Nc1ccc2c(c1)S(=O)(=O)N=C(C1=C(O)[C@H]3CCC[C@H]3N(Cc3ccc(F)cc3)C1=O)N2 [Example 26, (4aS,7aR)—N-{3-[1-(4-Fluoro-benzyl)-4-hydroxy-2-oxo-2,4-a,5,6,7,7a-hexahydro-1H-[1]pyrindin-3-yl]-1,1-dioxo-1,4-dihydro-1λ^6-benzo[1,2,4]thiadiazin-7-yl}-methanesulfonamide]	0.02 to 0.1
CS(=O)(=O)Nc1ccc2c(c1)S(=O)(=O)N=C(C1=C(O)[C@@H]3CCC[C@@H]3N(Cc3ccc(F)c(F)c3)C1=O)N2 [Example 27, (4aR,7aS)—N-{3-[1-(3,4-Difluoro-benzyl)-4-hydroxy-2-oxo-2,4-a,5,6,7,7a-hexahydro-1H-[1]pyrindin-3-yl]-1,1-dioxo-1,4-dihydro-1λ^6-benzo[1,2,4]thiadiazin-7-yl]-methanesulfonamide]	< 0.02
CC(C)CCN1C(=O)C(C2=NS(=O)(=O)c3cc(NS(C)(=O)=O)ccc3N2)=C(O)[C@@H]2CCC[C@@H]21 [Example 28, (4aR,7aS)—N-{3-[4-Hydroxy-1-(3-methyl-butyl)-2-oxo-2,4-a,5,6,7,7a-hexahydro-1H-[1]pyrindin-3-yl]-1,1-dioxo-1,4-dihydro-1λ^6-benzo[1,2,4]thiadiazin-7-yl]-methanesulfonamide]	< 0.02
CC(C)(C)CCN1C(=O)C(C2=NS(=O)(=O)c3cc(NS(C)(=O)=O)ccc3N2)=C(O)[C@@H]2CCC[C@@H]21 [Example 29, (4aR,7aS)—N-{3-[1-(3,3-Dimethyl-butyl)-4-hydroxy-2-oxo-2,4-a,5,6,7,7a-hexahydro-1H-[1]pyrindin-3-yl]-1,1-dioxo-1,4-dihydro-1λ^6-benzo[1,2,4]thiadiazin-7-yl]-methanesulfonamide]	< 0.02
CS(=O)(=O)Nc1ccc2c(c1)S(=O)(=O)N=C(C1=C(O)[C@@H]3CCC[C@@H]3N(CC3CC3)C1=O)N2 [Example 30, (4aR,7aS)—N-[3-(1-Cyclopropylmethyl-4-hydroxy-2-oxo-2,4-a,5,6,7,7a-hexahydro-1H-[1]pyrindin-3-yl)-1,1-dioxo-1,4-dihydro-1λ^6-benzo[1,2,4]thiadiazin-7-yl]-methanesulfonamide]	0.1 to 1
CS(=O)(=O)Nc1ccc2c(c1)S(=O)(=O)N=C(C1=C(O)[C@H]3CCCC[C@H]3N(Cc3ccc(F)cc3)C1=O)N2 [Example 31, (4aS, 8aR)—N-{3-[1-(4-Fluoro-benzyl)-4-hydroxy-2-oxo-1,2,4a,5,6,7,8,8a-octahydro-quinolin-3-yl]-1,1-dioxo-1,4-dihydro-1λ^6 benzo[1,2,4]thiadiazin-7-yl]-methanesulfonamide]	0.02 to 0.1
CC(C)(C)CCN1C(=O)C(C2=NS(=O)(=O)c3cc(NS(C)(=O)=O)ccc3N2)=C(O)C2CCCCCC21 (stereo not shown) [Example 32, N-{3-[1-(3,3-Dimethyl-butyl)-4-hydroxy-2-oxo-2,4-a,5,6,7,8,9,9a-octahydro-1H-cyclohepta[b]pyridin-3-yl]-1,1-dioxo-1,4-dihydro-1λ^6-benzo[1,2,4]thiadiazin-7-yl]-methanesulfonamide]	0.02 to 0.1
CC(C)CCN1C(=O)C(C2=NS(=O)(=O)c3cc(NS(C)(=O)=O)ccc3N2)=C(O)C2CCCCCC21 (stereo not shown) [Example 33, N-{3-[4-Hydroxy-1-(3-methyl-butyl)-2-oxo-2,4-a,5,6,7,8,9,9a-octahydro-1H-cyclohepta[b]pyridin-3-yl]-1,1-dioxo-1,4-dihydro-1λ^6-benzo[1,2,4]thiadiazin-7-yl}-methanesulfonamide]	0.02 to 0.1
CC(C)CCN1C(=O)C(C2=NS(=O)(=O)c3cc(N(C)S(C)(=O)=O)ccc3N2)=C(O)C2CCCCCC21 (stereo not shown) [Example 34, N-{3-[4-Hydroxy-1-(3-methyl-butyl)-2-oxo-2,4-a,5,6,7,8,9,9a-octahydro-1H-cyclohepta[b]pyridin-3-yl]-1,1-dioxo-1,4-dihydro-1λ^6-benzo[1,2,4]thiadiazin-7-yl}-N-methyl-methanesulfonamide]	0.1 to 1
CC(C)(C)CCN1C(=O)C(C2=NS(=O)(=O)c3cc(NS(C)(=O)=O)ccc3N2)=C(O)C2CCCCCCC21 (stereo not shown) [Example 35, N-{3-[1-(3,3-Dimethyl-butyl)-4-hydroxy-2-oxo-1,2,4a,5,6,7,8,9,10,10a-decahydro-cycloocta[b]pyridin-3-yl]-1,1-dioxo-1,4-dihydro-1λ^6-benzo[1,2,4]thiadiazin-7-yl]-methanesulfonamide]	1 to 100
CN(c1ccc2c(c1)S(=O)(=O)N=C(C1=C(O)C3CCCCCCC3N(CCC(C)(C)C)C1=O)N2)S(C)(=O)=O (stereo not shown) [Example 36, N-{3-[1-(3,3-Dimethyl-butyl)-4-hydroxy-2-oxo-1,2,4a,5,6,7,8,9,10,10a-decahydro-cycloocta[b]pyridin-3-yl]-1,1-dioxo-1,4-dihydro-1λ^6-benzo[1,2,4]thiadiazin-7-yl]-N-methyl-methanesulfonamide]	1 to 100

— US20090111798A1, “5,6-DIHYDRO-1H-PYRIDIN-2-ONE COMPOUNDS” (priority 2006, published 2009)
